According to patent US20140363384A1, “COMBINATION THERAPY FOR COPD” (CHIESI FARMACEUTICI S.p.A., priority 2009, published 2014):

Tests used:
[1] = Stability of single, double and triple combination aerosol solution formulations: residual content of active ingredient in the can; assay type: physicochemical; conditions: for Residual % amount ± standard deviation: stored 3 months at 25° C./60% relative humidity, versus amount at time 0
[2] = Analysis of impurities/degradation products by HPLC/UV VIS; conditions: for Total impurities % Vs active ingredient: stored 3 months at 25° C./60% relative humidity
[3] = triple combination FF+GLY+BDP aerosol solution
[4] = triple combination, +5° C. to +40° C./75% RH, 1, 2 and 3 months
[5] = triple combination FF+GLY+BDP, versus initial amount of the active ingredient

Residual % amount ± standard deviation ([1]; double combination FF + BDP) [%]	SMILES	Residual % amount ± standard deviation [1, 3] [%]	can content versus time and temperature of storage [1, 4]	Total impurities % Vs active ingredient ([2]; double combination FF + BDP) [%]	Total impurities % Vs active ingredient [2, 5] [%]	Total impurities % Vs active ingredient ([2]; double combination FF + Gly) [%]	level of degradation products (HPLC/UV) ([2]; formulations comprising both formoterol and GLY)	Residual % amount ± standard deviation ([1]; double combination FF + Gly) [%]	can content versus time and temperature of storage ([1]; double combination FF+GLY, all tested storage conditions)	can content versus time and temperature of storage ([1]; single agent GLY formulation in the presence of 1M HCl)	can content versus time and temperature of storage ([1]; single agent GLY formulation, acid omitted)
98.9 ± 0.6	CCC(=O)OCC(=O)[C@@]1(OC(=O)CC)[C@@H](C)C[C@H]2[C@@H]3CCC4=CC(=O)C=C[C@]4(C)[C@@]3(Cl)[C@@H](O)C[C@@]21C [BDP, beclometasone dipropionate]	94.5 ± 0.3	not significantly affected by time and temperature	0.20	0.21	–	–	–	–	–	–
–	COc1ccc(C[C@@H](C)NC[C@H](O)c2ccc(O)c(NC=O)c2)cc1.COc1ccc(C[C@@H](C)NC[C@H](O)c2ccc(O)c(NC=O)c2)cc1.O=C(O)/C=C/C(=O)O [FF, formoterol fumarate]	–	–	0.80	1.1	1.3	high levels of degradation products	–	–	–	–
–	C[N+]1(C)CCC(OC(=O)C(O)(c2ccccc2)C2CCCC2)C1.[Cl-] (stereo not drawn) [Gly, 3-[(cyclopentylhydroxyphenyl-acetyl)oxy]-1,1-dimethylpyrrolidinium chloride]	96.4 ± 1.3	not significantly affected by time and temperature	–	–	–	–	96.0 ± 0.1	remains stable under all of the tested conditions	maintain a constant content	highly dependent on time and temperature of storage
